Assay results as given in ChEMBL document CHEMBL1201861, “Genomics of Drug Sensitity in Cancer screening data, Wellcome Trust Sanger Institute”.

Tests used:
Assay in all cases: cells
HEL = format: functional, cell-based, Homo sapiens; conditions: Homo sapiens, HEL;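 note: growth inhibition of HEL cells, read out with a cell viability assay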
Description: SANGER: Inhibition of human HEL cell growth in a cell viability assay.

HCE-T = format: functional, cell-based, Homo sapiens; conditions: Homo sapiens, HCE-T;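 note: cell viability assay read-out, reporting inhibition of HCE-T cell growth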
Description: SANGER: Inhibition of human HCE-T cell growth in a cell viability assay.

LNCaP-Clone-FGC = format: functional, cell-based, Homo sapiens; conditions: Homo sapiens, LNCaP-Clone-FGC
Description: SANGER: Inhibition of human LNCaP-Clone-FGC cell growth in a cell viability assay.

KARPAS-45 = format: functional, cell-based, Homo sapiens; conditions: Homo sapiens, KARPAS-45;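 note: inhibition of cell line growth, read out through a viability assay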
Description: SANGER: Inhibition of human KARPAS-45 cell growth in a cell viability assay.

SK-N-DZ = format: functional, cell-based, Homo sapiens; conditions: Homo sapiens, SK-N-DZ;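 note: growth inhibition of the cancer cell line, read out through a viability assay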
Description: SANGER: Inhibition of human SK-N-DZ cell growth in a cell viability assay.

D283 Med = format: functional, cell-based, Homo sapiens; conditions: Homo sapiens, D283 Med
Description: SANGER: Inhibition of human D-283MED cell growth in a cell viability assay.

EW-11 = format: functional, cell-based, Homo sapiens; conditions: Homo sapiens, EW-11;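 note: growth inhibition of human EW-11 cells, measured with a cell viability assay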
Description: SANGER: Inhibition of human EW-11 cell growth in a cell viability assay.

U-266 = format: functional, cell-based, Homo sapiens; conditions: Homo sapiens, U-266
Description: SANGER: Inhibition of human U-266 cell growth in a cell viability assay.

ES8 = format: functional, cell-based, Homo sapiens; conditions: Homo sapiens, ES8;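 note: growth inhibition of human ES8 cells, read out with a cell viability assay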
Description: SANGER: Inhibition of human ES8 cell growth in a cell viability assay.

IA-LM = format: functional, cell-based, Homo sapiens; conditions: Homo sapiens, IA-LM;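 note: cell viability assay measuring growth inhibition of human IA-LM cells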
Description: SANGER: Inhibition of human IA-LM cell growth in a cell viability assay.

A388 = format: functional, cell-based, Homo sapiens; conditions: Homo sapiens, A388;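 note: growth inhibition of human A388 cells, read out with a cell viability assay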
Description: SANGER: Inhibition of human A388 cell growth in a cell viability assay.

KM12 = format: functional, cell-based, Homo sapiens; conditions: Homo sapiens, KM12;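 note: KM12 cell growth inhibition, read out with a cell viability assay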
Description: SANGER: Inhibition of human KM12 cell growth in a cell viability assay.

EW-3 = format: functional, cell-based, Homo sapiens; conditions: Homo sapiens, EW-3;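 note: cell viability assay read-out, IC50 reflects inhibition of growth of the EW-3 cells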
Description: SANGER: Inhibition of human EW-3 cell growth in a cell viability assay.

SK-MEL-2 = format: functional, cell-based, Homo sapiens; conditions: Homo sapiens, SK-MEL-2;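 note: growth inhibition of human SK-MEL-2 cells measured with a cell viability assay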
Description: SANGER: Inhibition of human SK-MEL-2 cell growth in a cell viability assay.

SK-N-FI = format: functional, cell-based, Homo sapiens; conditions: Homo sapiens, SK-N-FI;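 note: cell viability assay measuring growth inhibition of human SK-N-FI cells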
Description: SANGER: Inhibition of human SK-N-FI cell growth in a cell viability assay.

A4-Fuk = format: functional, cell-based, Homo sapiens; conditions: Homo sapiens, A4-Fuk;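 note: growth inhibition of A4-Fuk cells, read out by a cell viability assay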
Description: SANGER: Inhibition of human A4-Fuk cell growth in a cell viability assay.

DSH1 = format: functional, cell-based, Homo sapiens; conditions: Homo sapiens, DSH1;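 note: growth inhibition of human DSH1 cells, measured with a cell viability readout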
Description: SANGER: Inhibition of human DSH1 cell growth in a cell viability assay.

TE-12 = format: functional, cell-based, Homo sapiens; conditions: Homo sapiens, TE-12;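 note: growth inhibition of TE-12 cells, read out by a cell viability assay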
Description: SANGER: Inhibition of human TE-12 cell growth in a cell viability assay.

NOMO-1 = format: functional, cell-based, Homo sapiens; conditions: Homo sapiens, NOMO-1;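 note: growth inhibition of human NOMO-1 cells measured by a cell viability assay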
Description: SANGER: Inhibition of human NOMO-1 cell growth in a cell viability assay.

U-87 MG = format: functional, cell-based, Homo sapiens, U-87MG ATCC; conditions: Homo sapiens, U-87 MG;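 note: growth inhibition of the cells measured with a viability assay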
Description: SANGER: Inhibition of human U-87-MG cell growth in a cell viability assay.

NCI-N87 = format: functional, cell-based, Homo sapiens; conditions: Homo sapiens, NCI-N87;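 note: growth inhibition of human NCI-N87 cells, read out with a cell viability assay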
Description: SANGER: Inhibition of human NCI-N87 cell growth in a cell viability assay.

SHP77 = format: functional, cell-based, Homo sapiens, SHP-77; conditions: Homo sapiens, SHP77;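 note: growth inhibition of human SHP-77 cells measured by a cell viability assay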
Description: SANGER: Inhibition of human SHP-77 cell growth in a cell viability assay.

SH-4 = format: functional, cell-based, Homo sapiens; conditions: Homo sapiens, SH-4;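 note: growth inhibition of SH-4 cells, read out with a cell viability assay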
Description: SANGER: Inhibition of human SH-4 cell growth in a cell viability assay.

A498 = format: functional, cell-based, Homo sapiens; conditions: Homo sapiens, A498;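 note: growth inhibition of human A498 cells, read out with a cell viability assay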
Description: SANGER: Inhibition of human A498 cell growth in a cell viability assay.

LC-2-ad = format: functional, cell-based, Homo sapiens; conditions: Homo sapiens, LC-2-ad;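 note: growth inhibition of human LC-2-ad cells, read out with a cell viability assay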
Description: SANGER: Inhibition of human LC-2-ad cell growth in a cell viability assay.

JVM-3 = format: functional, cell-based, Homo sapiens; conditions: Homo sapiens, JVM-3;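 note: growth inhibition of human JVM-3 cells, read out with a cell viability assay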
Description: SANGER: Inhibition of human JVM-3 cell growth in a cell viability assay.

RH-1 = format: functional, cell-based, Homo sapiens; conditions: Homo sapiens, RH-1;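 note: growth inhibition of human RH-1 cells, read out with a cell viability assay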
Description: SANGER: Inhibition of human RH-1 cell growth in a cell viability assay.

SK-UT-1 = format: functional, cell-based, Homo sapiens; conditions: Homo sapiens, SK-UT-1;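 note: growth inhibition of SK-UT-1 cells, measured by a cell viability assay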
Description: SANGER: Inhibition of human SK-UT-1 cell growth in a cell viability assay.

MC116 = format: functional, cell-based, Homo sapiens; conditions: Homo sapiens, MC116;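 note: growth inhibition of MC116 cells, read out with a cell viability assay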
Description: SANGER: Inhibition of human MC116 cell growth in a cell viability assay.

CCRF-CEM = format: functional, cell-based, Homo sapiens; conditions: Homo sapiens, CCRF-CEM;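 note: inhibition of CCRF-CEM cell growth, measured by a cell viability assay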
Description: SANGER: Inhibition of human CCRF-CEM cell growth in a cell viability assay.

KNS-81-FD = format: functional, cell-based, Homo sapiens; conditions: Homo sapiens, KNS-81-FD;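 note: growth inhibition of KNS-81-FD cells, read out with a cell viability assay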
Description: SANGER: Inhibition of human KNS-81-FD cell growth in a cell viability assay.

NCI-H526 = format: functional, cell-based, Homo sapiens; conditions: Homo sapiens, NCI-H526;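 note: growth inhibition of the human NCI-H526 cell line, measured by a cell viability assay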
Description: SANGER: Inhibition of human NCI-H526 cell growth in a cell viability assay.

LU-134-A = format: functional, cell-based, Homo sapiens; conditions: Homo sapiens, LU-134-A
Description: SANGER: Inhibition of human LU-134-A cell growth in a cell viability assay.

TE-1 = format: functional, cell-based, Homo sapiens; conditions: Homo sapiens, TE-1
Description: SANGER: Inhibition of human TE-1 cell growth in a cell viability assay.

BE-13 = format: functional, cell-based, Homo sapiens; conditions: Homo sapiens, BE-13;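 note: growth inhibition of human BE-13 cells, measured with a cell viability assay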
Description: SANGER: Inhibition of human BE-13 cell growth in a cell viability assay.

ES3 = format: functional, cell-based, Homo sapiens; conditions: Homo sapiens, ES3;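 note: growth inhibition of ES3 cells, read out with a cell viability assay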
Description: SANGER: Inhibition of human ES3 cell growth in a cell viability assay.

ACN = format: functional, cell-based, Homo sapiens; conditions: Homo sapiens, ACN;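 note: growth inhibition of the human ACN cell line, read out via cell viability testing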
Description: SANGER: Inhibition of human ACN cell growth in a cell viability assay.

IST-MEL1 = format: functional, cell-based, Homo sapiens; conditions: Homo sapiens, IST-MEL1;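 note: growth inhibition of the cell line, read out with a cell viability assay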
Description: SANGER: Inhibition of human IST-MEL1 cell growth in a cell viability assay.

SW 954 = format: functional, cell-based, Homo sapiens; conditions: Homo sapiens, SW 954;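 note: growth inhibition of SW954 human cancer cells, read out as cell viability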
Description: SANGER: Inhibition of human SW954 cell growth in a cell viability assay.

HCC2218 = format: functional, cell-based, Homo sapiens; conditions: Homo sapiens, HCC2218;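 note: cell viability assay read-out, with IC50 given as the concentration that inhibits growth of the cell line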
Description: SANGER: Inhibition of human HCC2218 cell growth in a cell viability assay.

GB-1 = format: functional, cell-based, Homo sapiens; conditions: Homo sapiens, GB-1;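 note: growth of GB-1 cells judged by a viability assay, IC50 marks the concentration inhibiting growth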
Description: SANGER: Inhibition of human GB-1 cell growth in a cell viability assay.

MEG-01 = format: functional, cell-based, Homo sapiens; conditions: Homo sapiens, MEG-01;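 note: growth inhibition of MEG-01 cells, read out by a cell viability assay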
Description: SANGER: Inhibition of human MEG-01 cell growth in a cell viability assay.

GR-ST = format: functional, cell-based, Homo sapiens; conditions: Homo sapiens, GR-ST
Description: SANGER: Inhibition of human GR-ST cell growth in a cell viability assay.

NKM-1 = format: functional, cell-based, Homo sapiens; conditions: Homo sapiens, NKM-1;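 note: growth inhibition of NKM-1 cells, read out with a cell viability assay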
Description: SANGER: Inhibition of human NKM-1 cell growth in a cell viability assay.

NCI-H23 = format: functional, cell-based, Homo sapiens; conditions: Homo sapiens, NCI-H23;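 note: cell viability assay measuring growth inhibition of NCI-H23 cells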
Description: SANGER: Inhibition of human NCI-H23 cell growth in a cell viability assay.

NCI-H747 = format: functional, cell-based, Homo sapiens; conditions: Homo sapiens, NCI-H747;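 note: growth inhibition of human NCI-H747 cells, read out by a cell viability assay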
Description: SANGER: Inhibition of human NCI-H747 cell growth in a cell viability assay.

COLO-668 = format: functional, cell-based, Homo sapiens; conditions: Homo sapiens, COLO-668
Description: SANGER: Inhibition of human COLO-668 cell growth in a cell viability assay.

Compound: CC1(C)CNc2cc(NC(=O)c3cccnc3NCc3ccncc3)ccc21 [MOTESANIB]
- IC50 (HEL): > 2 µM
- IC50 (HCE-T): > 2 µM
- IC50 (LNCaP-Clone-FGC): > 2 µM
- IC50 (KARPAS-45): > 2 µM
- IC50 (SK-N-DZ): 0.549 µM
- IC50 (D283 Med): > 2 µM
- IC50 (EW-11): > 2 µM
- IC50 (U-266): > 2 µM
- IC50 (ES8): > 2 µM
- IC50 (IA-LM): > 2 µM
- IC50 (A388): > 2 µM
- IC50 (KM12): > 2 µM
- IC50 (EW-3): > 2 µM
- IC50 (SK-MEL-2): > 2 µM
- IC50 (SK-N-FI): > 2 µM
- IC50 (A4-Fuk): > 2 µM
- IC50 (DSH1): > 2 µM
- IC50 (TE-12): > 2 µM
- IC50 (NOMO-1): > 2 µM
- IC50 (U-87 MG): > 2 µM
- IC50 (NCI-N87): > 2 µM
- IC50 (SHP77): > 2 µM
- IC50 (SH-4): > 2 µM
- IC50 (A498): > 2 µM
- IC50 (LC-2-ad): > 2 µM
- IC50 (JVM-3): > 2 µM
- IC50 (RH-1): > 2 µM
- IC50 (SK-UT-1): > 2 µM
- IC50 (MC116): > 2 µM
- IC50 (CCRF-CEM): > 2 µM
- IC50 (KNS-81-FD): > 2 µM
- IC50 (NCI-H526): > 2 µM
- IC50 (LU-134-A): > 2 µM
- IC50 (TE-1): > 2 µM
- IC50 (BE-13): > 2 µM
- IC50 (ES3): > 2 µM
- IC50 (ACN): > 2 µM
- IC50 (IST-MEL1): > 2 µM
- IC50 (SW 954): > 2 µM
- IC50 (HCC2218): > 2 µM
- IC50 (GB-1): > 2 µM
- IC50 (MEG-01): > 2 µM
- IC50 (GR-ST): > 2 µM
- IC50 (NKM-1): > 2 µM
- IC50 (NCI-H23): > 2 µM
- IC50 (NCI-H747): > 2 µM
- IC50 (COLO-668): > 2 µM

Compound: CCN(CC)CCCCNc1ncc2cc(-c3cc(OC)cc(OC)c3)c(NC(=O)NC(C)(C)C)nc2n1 [PD-173074]
- IC50 (HEL): > 2 µM
- IC50 (HCE-T): > 2 µM
- IC50 (LNCaP-Clone-FGC): > 2 µM
- IC50 (KARPAS-45): > 2 µM
- IC50 (SK-N-DZ): > 2 µM
- IC50 (D283 Med): > 2 µM
- IC50 (EW-11): > 2 µM
- IC50 (U-266): > 2 µM
- IC50 (ES8): > 2 µM
- IC50 (IA-LM): > 2 µM
- IC50 (A388): > 2 µM
- IC50 (KM12): > 2 µM
- IC50 (EW-3): > 2 µM
- IC50 (SK-MEL-2): > 2 µM
- IC50 (SK-N-FI): > 2 µM
- IC50 (A4-Fuk): > 2 µM
- IC50 (DSH1): > 2 µM
- IC50 (TE-12): > 2 µM
- IC50 (NOMO-1): > 2 µM
- IC50 (U-87 MG): > 2 µM
- IC50 (NCI-N87): > 2 µM
- IC50 (SHP77): > 2 µM
- IC50 (SH-4): > 2 µM
- IC50 (A498): > 2 µM
- IC50 (LC-2-ad): > 2 µM
- IC50 (JVM-3): > 2 µM
- IC50 (RH-1): > 2 µM
- IC50 (SK-UT-1): > 2 µM
- IC50 (MC116): > 2 µM
- IC50 (CCRF-CEM): > 2 µM
- IC50 (KNS-81-FD): > 2 µM
- IC50 (NCI-H526): > 2 µM
- IC50 (LU-134-A): > 2 µM
- IC50 (TE-1): > 2 µM
- IC50 (BE-13): > 2 µM
- IC50 (ES3): > 2 µM
- IC50 (ACN): > 2 µM
- IC50 (IST-MEL1): > 2 µM
- IC50 (SW 954): > 2 µM
- IC50 (HCC2218): > 2 µM
- IC50 (GB-1): > 2 µM
- IC50 (MEG-01): > 2 µM
- IC50 (GR-ST): > 2 µM
- IC50 (NKM-1): > 2 µM
- IC50 (NCI-H23): > 2 µM
- IC50 (NCI-H747): > 2 µM
- IC50 (COLO-668): > 2 µM

Compound: Cn1cnc2c(F)c(Nc3ccc(Br)cc3Cl)c(C(=O)NOCCO)cc21 [SELUMETINIB]
- IC50 (HEL): > 4 µM
- IC50 (HCE-T): 0.971 µM
- IC50 (LNCaP-Clone-FGC): > 4 µM
- IC50 (KARPAS-45): 2.08 µM
- IC50 (SK-N-DZ): > 4 µM
- IC50 (D283 Med): > 4 µM
- IC50 (EW-11): > 4 µM
- IC50 (U-266): 0.488 µM
- IC50 (ES8): > 4 µM
- IC50 (IA-LM): > 4 µM
- IC50 (A388): > 4 µM
- IC50 (KM12): 2.54 µM
- IC50 (EW-3): 2.93 µM
- IC50 (SK-MEL-2): 0.405 µM
- IC50 (SK-N-FI): > 4 µM
- IC50 (A4-Fuk): > 4 µM
- IC50 (DSH1): > 4 µM
- IC50 (TE-12): > 4 µM
- IC50 (NOMO-1): 0.032 µM
- IC50 (U-87 MG): > 4 µM
- IC50 (NCI-N87): > 4 µM
- IC50 (SHP77): > 4 µM
- IC50 (SH-4): 0.166 µM
- IC50 (A498): > 4 µM
- IC50 (LC-2-ad): > 4 µM
- IC50 (JVM-3): 0.701 µM
- IC50 (RH-1): > 4 µM
- IC50 (MC116): > 4 µM
- IC50 (CCRF-CEM): > 4 µM
- IC50 (KNS-81-FD): > 4 µM
- IC50 (NCI-H526): > 4 µM
- IC50 (LU-134-A): > 4 µM
- IC50 (TE-1): > 4 µM
- IC50 (BE-13): > 4 µM
- IC50 (ES3): > 4 µM
- IC50 (ACN): 0.567 µM
- IC50 (IST-MEL1): > 4 µM
- IC50 (SW 954): 0.896 µM
- IC50 (HCC2218): 2.48 µM
- IC50 (GB-1): > 4 µM
- IC50 (MEG-01): 1.63 µM
- IC50 (GR-ST): > 4 µM
- IC50 (NKM-1): 0.386 µM
- IC50 (NCI-H23): > 4 µM
- IC50 (NCI-H747): 0.351 µM
- IC50 (COLO-668): > 4 µM
